For eight compounds, Hill coefficient results are on record in ChEMBL document CHEMBL1125640.

A short description of the test: Hill coefficient value of the compound.
Take `COC(=O)[C@@H]1[C@@H](OC(=O)c2ccccc2)CC2CC[C@H]1N2C`: the Hill coefficient was 0.95. Then `COC(=O)[C@H]1[C@H]2CCC(C[C@H]1OC(=O)c1ccccc1)N2C`, with 1.3. Then `COC(=O)C1C2CC[C@H](C[C@H]1OC(=O)c1ccccc1)N2C` (stereo in doubt; 3), with 2.81.

The compound `COC(=O)C1C2CC[C@H](C[C@H]1OC(=O)c1ccccc1)N2C` (stereo in doubt; 4) returned a Hill coefficient of 0.92. On to `COC(=O)[C@H]1[C@@H](OC(=O)c2ccccc2)C[C@@H]2CC[C@H]1N2C` (stereo in doubt; 1), for which the Hill coefficient was 0.91. Consider `COC(=O)[C@H]1[C@@H](OC(=O)c2ccccc2)CC2CC[C@H]1N2C`, for which the Hill coefficient amounted to 2.6. Then `COC(=O)[C@@H]1[C@H]2CCC(C[C@H]1OC(=O)c1ccccc1)N2C`, with 1.19; and `COC(=O)[C@H]1[C@@H](OC(=O)c2ccccc2)C[C@@H]2CC[C@H]1N2C` (stereo in doubt; 2), with 0.96.

A word on the Hill coefficient: it is the slope factor of the fitted curve.
